Earlier results, collected in US10702520B1, “Pharmaceutical compositions of posaconazole” (SLAYBACK PHARMA LLC, priority 2019, dated 2020).
Like-named read-outs stand apart in the source and are kept apart here.

solubility (in 0.1 N Hydrochloric acid) [µg/mL] | solubility (in water) | solubility (at gastric pH) | solubility (pH about 6.4 or higher) | Compound
6 | less than 1 μg/mL | – | – | CCC(C)n1ncn(-c2ccc(N3CCN(c4ccc(OC[C@H]5CO[C@](Cn6cncn6)(c6ccc(Cl)cc6Cl)O5)cc4)CC3)cc2)c1=O (mixture of isomers) [Itraconazole]
– | – | approximately 0.8 mg/mL | less than 1 μg/mL | CC[C@@H]([C@H](C)O)n1ncn(-c2ccc(N3CCN(c4ccc(OC[C@@H]5CO[C@@](Cn6cncn6)(c6ccc(F)cc6F)C5)cc4)CC3)cc2)c1=O [Posaconazole free base, 4-[4-[4-[4-[[(3R,5R)-5-(2,4-difluorophenyl)tetrahydro-5-(1H-1,2,4-triazol-1-ylmethyl)-3-furanyl]methoxy]phenyl]-1-piperazinyl]phenyl]-2-[(1S,2S)-1-ethyl-2-hydroxypropyl]-2,4-dihydro-3H-1,2,4-triazol-3-one]
